Assay results taken from US7713994B2 (Wyeth LLC, priority 2005, dated 2010).
Like-named read-outs stand apart in the source and are kept apart here.

Assays:
[1] = target: T1, cyclin B/CDK1 enzyme (Homo sapiens, UniProt P06493); assay: CDK1 ELISA kinase assay (phospho-Rb ser 795 detection); assay type: biochemical; conditions: In Vitro Enzyme Assays, read-out: CDK1 IC50
T1 construct: purchased New England BioLabs; host or cells: Sf9 insect cells, recombinant baculovirus
In short: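 Sf9-derived cyclin/CDK, 200 μM ATP, immobilized GST-Rb; 30° C/1 h. Detection: phospho-Ser795 Ab, HRP, TMB, OD450.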

[2] = system: BT474; assay: Cytotoxicity assay (SRB), BT474; assay type: cell-based
In short: (§1)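 Cells seeded overnight at 37 °C, 7% CO2 (BT474 12000, HCT-116 4000, LoVo and MCF-7 6000 cells/well) in RPMI 1640 with 5% FBS, then exposed to compound dilutions for 3 days (BT474 6 days). Survival versus untreated controls by TCA fixation and SRB staining, absorbance 540 nm.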

[3] = system: LoVo; assay: Cytotoxicity assay (SRB), LoVo; assay type: cell-based; conditions: Homo sapiens, LoVo, 72 h, LoVo cells, SRB, read-out: In Vitro Cellular Activity IC50 LOVO
In short: as §1

[4] = system: HCT-116; assay: Cytotoxicity assay (SRB), HCT-116; assay type: cell-based; conditions: Homo sapiens, HCT-116, 72 h, HCT116 cells, SRB, read-out: In Vitro Cellular Activity IC50 HCT116
In short: as §1

[5] = system: MCF-7; assay: Cytotoxicity assay (SRB), MCF-7; assay type: cell-based; conditions: Homo sapiens, MCF7, 72 h, MCF-7 cells, SRB, read-out: In Vitro Cellular Activity IC50 MCF-7
In short: as §1

[6] = Homo sapiens, BT-474, 144 h, BT474 cells, SRB, 6 days; read-out: In Vitro Cellular Activity IC50 BT474
[7] = Homo sapiens, BT-474, 144 h, BT474 cells, 6 days, SRB; read-out: In Vitro Cellular Activity IC50 BT474

T1 sequence (P06493 whole entry): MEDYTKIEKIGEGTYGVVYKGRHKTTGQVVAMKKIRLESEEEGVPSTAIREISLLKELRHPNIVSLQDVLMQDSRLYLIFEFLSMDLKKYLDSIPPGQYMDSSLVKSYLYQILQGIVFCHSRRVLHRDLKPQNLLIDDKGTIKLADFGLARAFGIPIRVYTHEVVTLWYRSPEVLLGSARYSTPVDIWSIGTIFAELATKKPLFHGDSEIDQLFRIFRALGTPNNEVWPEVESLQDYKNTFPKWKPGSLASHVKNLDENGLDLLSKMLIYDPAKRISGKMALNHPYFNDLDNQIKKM
T1 sequence (P14635 whole entry partner): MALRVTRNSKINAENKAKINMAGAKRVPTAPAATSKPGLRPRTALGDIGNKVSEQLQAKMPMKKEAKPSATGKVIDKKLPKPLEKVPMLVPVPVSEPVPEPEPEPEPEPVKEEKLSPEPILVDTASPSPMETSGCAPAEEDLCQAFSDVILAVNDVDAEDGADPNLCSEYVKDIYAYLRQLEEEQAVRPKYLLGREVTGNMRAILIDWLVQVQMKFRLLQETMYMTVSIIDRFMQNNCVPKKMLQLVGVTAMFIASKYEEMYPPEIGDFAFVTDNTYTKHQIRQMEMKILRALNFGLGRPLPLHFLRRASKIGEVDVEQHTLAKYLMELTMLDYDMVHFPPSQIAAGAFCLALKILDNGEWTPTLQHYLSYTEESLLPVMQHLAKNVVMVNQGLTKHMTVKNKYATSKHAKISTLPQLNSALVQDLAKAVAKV

IC50 [1] [µM] | melting point | SMILES | IC50 [2, 6] [µM] | IC50 ([3]; three days) [µM] | IC50 ([4]; three days) [µM] | IC50 ([5]; three days) [µM] | IC50 [2, 7] [µM] | IC50 ([4]; 3 days) [µM] | IC50 ([3]; 3 days) [µM] | IC50 ([5]; 3 days) [µM]
> 50 | 214 to 215 °C | O=C1NC(=O)c2ccc(-c3ccccc3)cc2/C1=C/Nc1ccc(CN2CCCCC2)cc1 [Example 95] | 3 | 3.7 |  |  |  |  |  | 
 | 142 to 143 °C | CN1CCN(c2ccc(NC=C3C(=O)NC(=O)c4ccc(OCCN5CCOCC5)cc43)cc2)CC1 [Example 155, 4-{[4-(4-Methyl-piperazin-1-yl)-phenylamino]-methylene}-6-(2-morpholin-4-yl-ethoxy)-4H-isoquinoline-1,3-dione] | 22 | 19 | 17 | 26 |  |  |  | 
 | 312 to 313 °C | Cc1ccc(CN/C=C2\C(=O)NC(=O)c3ccc(I)cc32)cc1O [Example 157, (4Z)-4-{[(4-Methyl-3-hydroxybenzyl)amino]methylene}-6-iodoisoquinoline-′1,3(2H,4H)-dione] | 19 | 22 | 6.7 | 8.2 |  |  |  | 
 | 175 to 176 °C | CN1CCN(c2ccc(N/C=C3\C(=O)NC(=O)c4ccc(C#CCOC5CCCCO5)cc43)cc2)CC1 (centres unmarked) [Example 161, (4Z)-4-({[4-(4-Methylpiperazin-1-yl)phenyl]amino}methylene)-6-[3-(tetrahydro-2H-pyran-2-yloxy)prop-1-ynyl]isoquinoline-1,3(2H,4H)-dione] | 3.4 | 6.4 | 2.2 | 4 |  |  |  | 
 | 222 to 223 °C | CCOC(=O)C1(C(=O)OCC)Oc2ccc(CN/C=C3\C(=O)NC(=O)c4ccc(Br)cc43)cc2O1 [Example 179, (Z)-Diethyl 5-(((6-bromo-1,3-dioxo-2,3-dihydroisoquinolin-4(1H)-ylidene)methylamino)methyl)benzo[d][1,3]dioxole-2,2-dicarboxylate] | 17 | 20 | 34 | 30 |  |  |  | 
 | 245 to 246 °C | O=C1NC(=O)c2ccc(Br)cc2/C1=C/NCc1ccc(NC(=O)C2CC2)c(OC(=O)C2CC2)c1 [Example 185, 5-({[(Z)-(6-Bromo-1,3-dioxo-2,3-dihydroisoquinolin-4(1H)-′cyclopropanecarboxylate ′ylidene)methyl]amino}methyl)-2-[(cyclopropylcarbonyl)amino]phenyl] | 0.87 | 2.7 | 2.8 | > 50 |  |  |  | 
 | 206 to 207 °C | CCCOc1ccc(CN/C=C2\C(=O)NC(=O)c3ccc(Br)cc32)cc1OC(=O)CC [Example 190, 5-({[(Z)-(6-Bromo-1,3-dioxo-2,3-dihydroisoquinolin-4(1H)-ylidene)methyl]amino}-methyl)-2-propoxyphenyl propionate] | 1.4 | 13 | 9.4 | > 50 |  |  |  | 
 | 211 to 212 °C | CCCOc1ccc(CN/C=C2\C(=O)NC(=O)c3ccc(Br)cc32)cc1OC(=O)OC [Example 191, 5-({[(Z)-(6-Bromo-1,3-dioxo-2,3-dihydroisoquinolin-4(1H)-ylidene)methyl]amino}-methyl)-2-propoxyphenyl methyl carbonate] | 5.7 | > 50 | 35 | > 50 |  |  |  | 
 | > 300 °C | CN1CCN(C(=O)Nc2ccc(N/C=C3\C(=O)NC(=O)c4ccc(Br)cc43)cc2)CC1 [Example 215, N-(4-{[(Z)-(6-Bromo-1,3-dioxo-2,3-dihydroisoquinolin-4(1H)-′ylidene)methyl]amino}phenyl)-4-methylpiperazine-1-carboxamide] | 7.4 | 6.4 | 4.5 | 7.1 |  |  |  | 
 | 274 to 276 °C | COc1cc2c(cc1Br)/C(=C/Nc1ccc(N3CCN(C)CC3)cc1)C(=O)NC2=O [Example 242, 6-Bromo-7-methoxy-4-{[4-(4-methyl-piperazin-1-yl)-phenylamino]-methylene}-4H-isoquinoline-1,3-dione] | 3.2 | 4.5 | 2.1 | 5.2 |  |  |  | 
 | 265 to 266 °C | O=C1NC(=O)c2ccc(I)cc2/C1=C/Nc1ccc(OCc2ccccn2)cc1 [Example 247] | 35 | > 50 | 18 | > 50 |  |  |  | 
 | 264 to 267 °C | COc1cc2c(cc1Br)/C(=C/Nc1ccc(CN3CCCCC3)cc1)C(=O)NC2=O [Example 252, 6-Bromo-7-methoxy-4-[(4-piperidin-1-ylmethyl-phenylamino)-methylene]-4H-isoquinoline-1,3-dione] | 15 | 21 | 14 | 33 |  |  |  | 
 | 224 to 225 °C | O=C1NC(=O)c2ccc(Br)cc2/C1=C/Nc1ccc(CN2CCSC2)cc1 [Example 281, (4Z)-6-Bromo-4-({[4-(1,3-thiazolidin-3-ylmethyl)phenyl]amino}methylene)isoquinoline-1,3(2H,4H)-dione] | 44.3 | 12 | 20 | 19 |  |  |  | 
 | 200 to 201 °C | COC[C@H]1CCCN1Cc1ccc(N/C=C2\C(=O)NC(=O)c3ccc(-c4ccc(OC(C)C)cc4)cc32)cc1 [Example 300, (4Z)-6-(4-Isopropoxyphenyl)-4-{[(4-{[(2R)-2-(methoxymethyl)pyrrolidin-1-yl]methyl}phenyl)amino]methylene}isoquinoline-1,3(2H,4H)-dione] | 17 | 26 | 3.1 | 8.7 |  |  |  | 
 | 293 to 297 °C (dec.) | O=C1NC(=O)c2ccc(Br)cc2C1=CNCc1cc(=O)c(O)co1 [Example 313, 6-Bromo-4-{[(5-hydroxy-4-oxo-4H-pyran-2-ylmethyl)-amino]-methylene}-4H-isoquinoline-1,3-dione] | 43 | 41 | 27 | 22 |  |  |  | 
 | 168 to 169 °C | C[C@@H]1CN(c2ccc(N/C=C3\C(=O)NC(=O)c4ccc(Br)cc43)cc2F)C[C@H](C)N1 [Example 318, (4Z)-6-Bromo-4-[({4-[(3R,5S)-3,5-dimethylpiperazin-1-yl]-3-fluorophenyl}amino)methylene]isoquinoline-1,3(2H,4H)-dione] | 1.9 | 1.5 | 1.3 | 2.5 |  |  |  | 
 | 290 to 291 °C | Cc1nn(-c2ccc(NC=C3C(=O)NC(=O)c4ccc(Br)cc43)cc2)c(C)c1Cl [Example 348, 6-Bromo-4-{[4-(4-chloro-3,5-dimethyl-pyrazol-1-yl)-phenylamino]-methylene}-4H-isoquinoline-1,3-dione] | 6.1 | 1.8 | 2.6 | 5.1 |  |  |  | 
 | 317 to 318 °C (dec.) | O=C1NC(=O)c2ccc(-n3cccc3)cc2/C1=C/Nc1ccc(Br)cn1 [Example 444, (Z)-4-((5-Bromopyridin-2-ylamino)methylene)-6-(1H-pyrrol-1-yl)isoquinoline-1,3(2H,4H)-dione] |  |  |  |  | 5.2 | 3.2 | 5 | 8.9
 | 223 to 224 °C | CC(C)N1CCN(c2ccc(N/C=C3\C(=O)NC(=O)c4ccc(Br)cc43)nc2)CC1 [Example 486, (4Z)-6-Bromo-4-({[5-(4-isopropylpiperazin-1-yl)pyridin-2-yl]amino}methylene)isoquinoline-1,3(2H,4H)-dione] |  |  |  |  | 3.61 | 7.49 | 7.56 | 10
 | 251 to 253 °C (dec.) | CCCOc1ccc(CN/C=C2\C(=O)NC(=O)c3ccc(I)cc32)nc1Br [Example 493, (Z)-4-(((6-Bromo-5-propoxypyridin-2-yl)methylamino)methylene)-6-iodoisoquinoline-1,3(2H,4H)-dione] |  |  |  |  | 10.9 | 4.7 | 9.4 | 10.2
 | 275 to 281 °C (dec.) | CCCOc1ccc(CN/C=C2\C(=O)NC(=O)c3ccc(I)cc32)nc1O [Example 510, 4-{[(6-Hydroxy-5-propoxy-pyridin-2-ylmethyl)-amino]-methylene}-6-iodo-4H-isoquinoline-1,3-dione] |  |  |  |  | 0.16 | 0.67 | 0.42 | 1.4
